Data published in article PMC6630718, “Discovery of Novel UV-Filters with Favorable Safety Profiles in the 5-Arylideneimidazolidine-2,4-dione Derivatives Group” (Molecules, 2019).

Legend:
[1] = tested on: estrogen-dependent MCF-7 breast cancer cell line; experiment: Estrogenic activity: MCF-7 proliferation, crystal violet assay; format: cell-based, human; conditions: 5 μM, 120 h, estrogen- and phenol red-free medium
Description: To determine estrogenic activity of tested compounds their influence on estrogen-dependent MCF-7 breast cancer cell line proliferation was investigated. Cells were seeded into 24-wells plates in density of 40,000 per well. After 24 h incubation, cells were washed twice with PBS and fresh, estrogen- and phenol red-free medium (DMEM low-glucose; 2,5% Charcoal Stripped FBS; 2 mM glutamine; Sigma Aldrich, Darmstadt, Germany) was added. […] After 120 h incubations, cells proliferation was determined with crystal violet assay. Briefly, cells were washed with PBS and fixed with 3,7% formaldehyde. Then, crystal violet solution was added for 10 minutes. After incubation, solution was removed and cells were washed five times with PBS. Crystal violate was extracted from cells using destaining solution (1,33% citric acid, 1,09% sodium citrate in water/methanol (1:1) solution) and absorbance of the solution was determined at 570 nm (A570). Proliferation rate was determined by dividing the A570 of experimental wells by the A570 of control wells × 100%.

[2] = In vitro stability in mouse liver microsomes; format: in vitro ADME
In short: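 Compound (20 µM) with mouse liver microsomes (0.8 mg/mL), potassium phosphate pH 7.4, NADPH-regenerating system, 37 °C for 15–60 min; parent remaining by UPLC/MS, two repeats. t1/2 from ln % remaining versus time; Clint = (incubation volume/protein) × 0.693/t1/2.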

## O=C(c1ccc(O)cc1O)c1ccc(O)cc1O [BP-2, benzophenone-2, reference compound]
[1]
  stimulation of MCF-7 proliferation: over 60%
[2]; mouse liver microsomes 0.8 mg/mL, 20 µM compound, NADPH-regenerating system, 37 °C
  t ½: 1.1 h
[2]; mouse liver microsomes, calculated from t1/2
  Clint: 13 µL/min/mg
